{"source": "patent US6743753B2", "about": "“Herbicidal compositions” (priority 1998, dated 2004)", "format_in_all_cases": "in vivo", "conditions_in_all_cases": "28 DAT", "key": {"[1]": {"system": "Leptochloa chinensis (LEFCH)", "test": "Post-emergence treatment of LEFCH, visual assessment of weed control", "text": "(§1) Seed of various weed species were sown and grown up to a 2-4 leaves stage. The said weeds are Echinochloa crus-galli (hereafter ECGCH), Leptochloa chinensis (hereafter LEFCH), Monochoria vaginalis (hereafter MOOVA) and Cyperus difformis (hereafter CYPDI).\n(§2) Mixtures of pyribenzoxim and a partner herbicide were applied post emergence in a water diluted form using a laboratory sprayer. A visual assessment was made 28 days after treatment (DAT).\n(§3) In the tables that follow ‘dose’ represents the dose rate in grammes per hectare of the active ingredient used; the figures for the weed control are percentage reductions in growth when compared with untreated controls; and CpdA represents pyribenzoxim."}, "[2]": {"system": "Monochoria vaginalis (MOOVA)", "test": "Post-emergence treatment of MOOVA, visual assessment of weed control", "text": "as §1, §2, §3"}, "[3]": {"system": "Cyperus difformis (CYPDI)", "test": "Post-emergence treatment of CYPDI, visual assessment of weed control", "text": "as §1, §2, §3"}, "[4]": {"system": "Echinochloa crus-galli (ECGCH)", "test": "Post-emergence treatment of ECGCH, visual assessment of weed control", "text": "as §1, §2, §3"}}}
{"smiles": "CC(Oc1ccc(Oc2nc3ccc(Cl)cc3o2)cc1)C(=O)O", "note": "(racemic) [fenoxaprop, [(±)-2-[4-(6-chloro-1,3-benzoxazol-2-yloxy)phenoxy]propionic acid]", "values": [{"measurement": "weed control, percentage reduction in growth vs untreated controls", "setting": "[1]; Table 2, fenoxaprop 15 g/ha alone", "value": 0, "unit": "%"}, {"measurement": "weed control, percentage reduction in growth vs untreated controls", "setting": "[1]; Table 2, fenoxaprop 30 g/ha alone", "value": 0, "unit": "%"}, {"measurement": "weed control, percentage reduction in growth vs untreated controls", "setting": "[1]; Table 2, fenoxaprop 60 g/ha alone", "value": 0, "unit": "%"}, {"measurement": "weed control, percentage reduction in growth vs untreated controls", "setting": "[2]; Table 7, MOOVA (2 leaf), fenoxaprop 15 g/ha alone", "value": 0, "unit": "%"}, {"measurement": "weed control, percentage reduction in growth vs untreated controls", "setting": "[2]; Table 7, MOOVA (2 leaf), fenoxaprop 30 g/ha alone", "value": 0, "unit": "%"}, {"measurement": "weed control, percentage reduction in growth vs untreated controls", "setting": "[2]; Table 7, MOOVA (2 leaf), fenoxaprop 60 g/ha alone", "value": 30, "unit": "%"}, {"measurement": "weed control, percentage reduction in growth vs untreated controls", "setting": "[2]; Table 7, MOOVA (2 leaf), fenoxaprop 120 g/ha alone", "value": 70, "unit": "%"}, {"measurement": "weed control, percentage reduction in growth vs untreated controls", "setting": "[3]; Table 10, fenoxaprop 30 g/ha alone", "value": 0, "unit": "%"}, {"measurement": "weed control, percentage reduction in growth vs untreated controls", "setting": "[3]; Table 10, fenoxaprop 60 g/ha alone", "value": 0, "unit": "%"}]}
{"smiles": "COc1cc(OC)nc(Oc2cccc(Oc3nc(OC)cc(OC)n3)c2C(=O)ON=C(c2ccccc2)c2ccccc2)n1", "note": "[CpdA, benzophenone O-{2,6-bis[(4,6-dimethoxypyrimidyl)oxy]benzoyl}oxime]", "values": [{"measurement": "weed control, percentage reduction in growth vs untreated controls", "setting": "[1]; Table 2, CpdA 15 g/ha alone", "value": 0, "unit": "%"}, {"measurement": "weed control, percentage reduction in growth vs untreated controls", "setting": "[1]; Table 2, CpdA 30 g/ha alone", "value": 30, "unit": "%"}, {"measurement": "weed control, percentage reduction in growth vs untreated controls", "setting": "[1]; Table 2, CpdA 60 g/ha alone", "value": 30, "unit": "%"}, {"measurement": "weed control, percentage reduction in growth vs untreated controls", "setting": "[1]; Table 3, CpdA 15 g/ha alone", "value": 0, "unit": "%"}, {"measurement": "weed control, percentage reduction in growth vs untreated controls", "setting": "[1]; Table 3, CpdA 30 g/ha alone", "value": 30, "unit": "%"}, {"measurement": "weed control, percentage reduction in growth vs untreated controls", "setting": "[1]; Table 3, CpdA 60 g/ha alone", "value": 30, "unit": "%"}, {"measurement": "weed control, percentage reduction in growth vs untreated controls", "setting": "[1]; Table 4, LEFCH (2 leaf), CpdA 15 g/ha alone", "value": 50, "unit": "%"}, {"measurement": "weed control, percentage reduction in growth vs untreated controls", "setting": "[1]; Table 5, LEFCH (2 leaf), CpdA 7.5 g/ha alone", "value": 30, "unit": "%"}, {"measurement": "weed control, percentage reduction in growth vs untreated controls", "setting": "[1]; Table 5, LEFCH (2 leaf), CpdA 15 g/ha alone", "value": 50, "unit": "%"}, {"measurement": "weed control, percentage reduction in growth vs untreated controls", "setting": "[1]; Table 6, LEFCH (2 leaf), CpdA 7.5 g/ha alone", "value": 30, "unit": "%"}, {"measurement": "weed control, percentage reduction in growth vs untreated controls", "setting": "[1]; Table 6, LEFCH (2 leaf), CpdA 15 g/ha alone", "value": 50, "unit": "%"}, {"measurement": "weed control, percentage reduction in growth vs untreated controls", "setting": "[2]; Table 7, MOOVA (2 leaf), CpdA 15 g/ha alone", "value": 0, "unit": "%"}, {"measurement": "weed control, percentage reduction in growth vs untreated controls", "setting": "[2]; Table 7, MOOVA (2 leaf), CpdA 30 g/ha alone", "value": 70, "unit": "%"}, {"measurement": "weed control, percentage reduction in growth vs untreated controls", "setting": "[2]; Table 8, MOOVA (2 leaf), CpdA 15 g/ha alone", "value": 100, "unit": "%"}, {"measurement": "weed control, percentage reduction in growth vs untreated controls", "setting": "[2]; Table 8, MOOVA (2 leaf), CpdA 30 g/ha alone", "value": 100, "unit": "%"}, {"measurement": "weed control, percentage reduction in growth vs untreated controls", "setting": "[2]; Table 9, MOOVA (2 leaf), CpdA 7.5 g/ha alone", "value": 100, "unit": "%"}, {"measurement": "weed control, percentage reduction in growth vs untreated controls", "setting": "[3]; Table 10, CpdA 15 g/ha alone", "value": 60, "unit": "%"}, {"measurement": "weed control, percentage reduction in growth vs untreated controls", "setting": "[3]; Table 11, CpdA 7.5 g/ha alone", "value": 0, "unit": "%"}, {"measurement": "weed control, percentage reduction in growth vs untreated controls", "setting": "[4]; CpdA 7.5 g/ha alone", "value": 20, "unit": "%"}]}
{"smiles": "COc1cc(OC)nc(NC(=O)NS(=O)(=O)Cc2ccccc2C(=O)O)n1", "note": "[bensulfuron, α-(4,6-dimethoxypyrimidin-2-ylcarbamoylsulfamoyl)-o-toluic acid]", "values": [{"measurement": "weed control, percentage reduction in growth vs untreated controls", "setting": "[1]; Table 4, LEFCH (2 leaf), bensulfuron 25 g/ha alone", "value": 0, "unit": "%"}, {"measurement": "weed control, percentage reduction in growth vs untreated controls", "setting": "[1]; Table 4, LEFCH (2 leaf), bensulfuron 50 g/ha alone", "value": 0, "unit": "%"}, {"measurement": "weed control, percentage reduction in growth vs untreated controls", "setting": "[4]; bensulfuron 6.5 g/ha alone", "value": 30, "unit": "%"}, {"measurement": "weed control, percentage reduction in growth vs untreated controls", "setting": "[4]; bensulfuron 13 g/ha alone", "value": 50, "unit": "%"}, {"measurement": "weed control, percentage reduction in growth vs untreated controls", "setting": "[4]; bensulfuron 25 g/ha alone", "value": 70, "unit": "%"}]}
{"smiles": "CC(C)N1C(=O)c2ccccc2NS1(=O)=O", "note": "[bentazone, 3-isopropyl-1H-2,1,3-benzothiadiazin-4(3H)-one 2,2-dioxide]", "values": [{"measurement": "weed control, percentage reduction in growth vs untreated controls", "setting": "[1]; Table 3, bentazone 375 g/ha alone", "value": 0, "unit": "%"}, {"measurement": "weed control, percentage reduction in growth vs untreated controls", "setting": "[1]; Table 3, bentazone 750 g/ha alone", "value": 20, "unit": "%"}, {"measurement": "weed control, percentage reduction in growth vs untreated controls", "setting": "[1]; Table 3, bentazone 1500 g/ha alone", "value": 20, "unit": "%"}, {"measurement": "weed control, percentage reduction in growth vs untreated controls", "setting": "[3]; Table 11, bentazone 375 g/ha alone", "value": 80, "unit": "%"}, {"measurement": "weed control, percentage reduction in growth vs untreated controls", "setting": "[3]; Table 11, bentazone 750 g/ha alone", "value": 80, "unit": "%"}]}
{"smiles": "Cc1ccc(C(=O)COc2c(C(=O)c3ccc(Cl)c(C)c3Cl)c(C)nn2C)cc1", "note": "[benzofenap, 2-[4-(2,4-dichloro-m-toluoyl)-1,3-dimethylpyrazol-5-yloxy]-4-′methylacetophenone]", "values": [{"measurement": "weed control, percentage reduction in growth vs untreated controls", "setting": "[1]; Table 6, LEFCH (2 leaf), benzofenap 600 g/ha alone", "value": 10, "unit": "%"}, {"measurement": "weed control, percentage reduction in growth vs untreated controls", "setting": "[1]; Table 6, LEFCH (2 leaf), benzofenap 1200 g/ha alone", "value": 20, "unit": "%"}, {"measurement": "weed control, percentage reduction in growth vs untreated controls", "setting": "[2]; Table 9, MOOVA (2 leaf), benzofenap 150 g/ha alone", "value": 0, "unit": "%"}, {"measurement": "weed control, percentage reduction in growth vs untreated controls", "setting": "[2]; Table 9, MOOVA (2 leaf), benzofenap 300 g/ha alone", "value": 0, "unit": "%"}]}
